From US20020081602A1, “Method for the detection of compounds that modulate the effects of the obese (ob) protein” (SmithKline Beecham p.1.c., priority 1996, published 2002)

How the values were obtained:
WRL68 cells = assay: c-fos expression by northern blotting in serum-starved WRL68 cells; type: cell-based; conditions: treated 5 minutes to 2 hours, normalised to beta-actin
Protocol: 7. Detection of increased c-fos mRNA after treatment with leptin. C-fos mRNA may be detected by Northern, RT-PCR or “slot blot” analysis.
WRL68 cells were grown to confluence in their standard culture medium in the simultaneous presence of 10% foetal calf serum. At confluence the cells were transferred to serum-free medium for a minimum of 18 hours (lowering the serum concentration may also produce similar results). Serum-starved cells were then treated with leptin or with serum (as positive control for c-fos upregulation) for varying time periods from 5 minutes to 2 hours. RNA was extracted from the cells and subjected to gel electrophoresis and northern blotting. The blotted RNA was then probed with a c-fos labelled probe to analyze the expression of c-fos, the data being normalised by analysing the expression of beta-actin. […] Therefore WRL68 cells is expected to be suitable for identification of leptin mimetics. Other cell lines could also be identified via analysis of c-fos expression in response to leptin.

[1] = test system: rat-1 fibroblasts over expressing insulin receptors; conditions: Kroder et al. 1996; cited from earlier work

Substance: Leptin: secreted hormone that acts as signal from adipose tissue to other organs to regulate weight and energy balance
- c-fos expression (WRL68 cells): significantly enhanced
- insulin stimulated phosphorylation of the insulin receptor and insulin receptor substrate-I [1]: inhibition
